# According to patent US4231936A, “Mitomycin C derivatives” (priority 1977, dated 1980):
# Tests used:
# [1] = background statement; cited from earlier work
# [2] = background statement; cited from earlier work; remark: listed apart in the source
# [3] = test system: Bacillus subtilis ATCC 10707; assay: Minimum inhibitory concentration (Table I); type: cell-based
# Text: (§1) Comparative data similarly obtained by using mitomycin A, mitomycin C and 7-N-phenyl mitomycin C are also shown in this table
# [4] = test system: Shigella sonnei ATCC 9290; assay: Minimum inhibitory concentration (Table I); type: cell-based
# Text: as §1
# [5] = test system: Staphylococcus aureus ATCC 6538P; assay: Minimum inhibitory concentration (Table I); type: cell-based
# Text: as §1
# [6] = test system: Klebsiella pneumoniae ATCC 10031; assay: Minimum inhibitory concentration (Table I); type: cell-based
# Text: as §1
# [7] = Solubility in water; type: physicochemical
# [8] = Acute toxicity determination, intraperitoneal; set-up: species or system Mice (dd-strain); settings: mouse, in vivo, ip; dd mice, single i.p., 14 days, Behrens-Karber
# Protocol: (§2) The following treatment was performed to make these compounds water-soluble for use in the experiments. A test compound was dissolved in ethanol (about 1000 times by weight) HCO-60, a commercially available surfactant was added in amounts of about 3 times by weight. The mixture was well stirred to dissolve the HCO-60. Ethanol was removed from the solution under reduced pressure by using a rotary evaporator. After this, a test solution was prepared by adding a suitable amount of a physiological saline solution with agitation.
# Mice [dd-strain; weight 20±1 g; each group consisted of 5 mice] were used for this experiment. An individual test solution was administered to each mouse by intraperitoneal injection. The test solutions (each 0.5 ml) were prepared by stepwise dilution.
# [9] = test system: Sarcoma 180 cells; assay: Effect on Sarcoma-180, tumor weight ratio (Example IV); type: in vivo, dd-strain mice; settings: tumor weighed 7 days after inoculation
# Protocol: as §2
# (§3) Sarcoma 180 cells were inoculated intraperitoneally into dd-strain mice. After 7 days following tumor implantation, ascites tumor cells were obtained from the mice. The cells were washed and a tumor cell suspension containing 5×10^7 cells per ml was prepared with physiological saline solution. 0.1 ml of the thus-prepared suspension containing 5×10^6 cells was inoculated into the left inguinal region of each of the test mice (dd-strain; weight 19±1 g; divided into groups, each group consisting of 5 mice). After 24 hours following the inoculation, the test compounds were administered to the mice individually and intraperitoneally. After 4 days following the inoculation, the peripherical blood of the treated mice was obtained by the puncture of the orbital vein. The number of the leucocytes in the peripheral blood was measured by using Toa Microcell Counter CC-108 (a commercial product of Toa Medical Electronics Co., Ltd., Japan). In order to evaluate the antitumor effects, the tumor was removed 7 days after the inoculation and weighed. Its weight was compared with the average weight of the tumors of the control group (untreated) to give the weight ratios (T/C) shown in Table 5.
# [10] = test system: P-388 cells; assay: Antitumor effect, P-388 cells intravenously inoculated, compound i.v. (Example III); type: in vivo, Mice; settings: 30 days
# Protocol: as §2
# Mice were inoculated intravenously with P-388 cells (10^6 /0.2 ml) in a similar manner to that described above in Example II. […] Untreated mice and mice administered with Tween 80 were used for control purpose.
# [11] = test system: P-388 cells; assay: Antitumor activity, P-388 leukemia intraperitoneally inoculated, compound i.p. (Example II); type: in vivo, CDF1 mice
# Protocol: as §2
# Seven-day-old leukemia cells obtained from the ascites of DBA/2 mice inoculated intraperitoneally with 10^6 P-388 cells were used. A cell suspension containing 5×10^6 cells per ml was prepared by using a sterilized physiological saline solution. The test mice (CDF1 mice, 20-25 g) were inoculated with 0.2 ml of the cell suspension containing 1×10^6 cells intraperitoneally. After 24 hours, the mice were divided into groups (each group consisting of 5 mice) and the test solutions were administered intraperitoneally once only. […] In order to evaluate the effects of the test samples, the average survival days were calculated 30 and 60 days after tumor implantation and compared with those of the control group (untreated group). Antitumor activities of the test compounds are indicated by ILS % (increase in life span%) on the basis of the control group.
# [12] = Number of leucocytes in peripheral blood of Sarcoma-180 bearing mice (Example IV); type: in vivo, dd-strain mice; settings: 4 days after inoculation
# Protocol: as §2, §3
# [13] = 5 mg/kg i.p. once, determined after 30 days
# [14] = 5 mg/kg i.p. once, determined after 60 days
# [15] = 10 mg/kg i.p. once, determined after 30 days
# [16] = 10 mg/kg i.p. once, determined after 60 days
# [17] = 15 mg/kg i.p. once, determined after 30 days
# [18] = 15 mg/kg i.p. once, determined after 60 days
# [19] = 20 mg/kg i.p. once, determined after 30 days
# [20] = 20 mg/kg i.p. once, determined after 60 days
smiles,measurement,setting,value
"CO[C@@]12[C@H](COC(N)=O)C3=C(C(=O)C(C)=C(N)C3=O)N1C[C@@H]1N[C@@H]12 [II, mitomycin C]",toxicity,[1],relatively high toxicity
same,antitumor activity,[2],interesting antitumor activity
same,minimum inhibitory concentration,[3],< 0.025
same,minimum inhibitory concentration,[4],1.563
same,minimum inhibitory concentration,[5],0.049
same,minimum inhibitory concentration,[6],< 0.025
"CO[C@@]12[C@H](COC(N)=O)C3=C(C(=O)C(C)=C(Nc4ccc(N)cc4)C3=O)N1C[C@@H]1N[C@@H]12 [V, 7-N-(p-aminophenyl)-mitomycin C]",solubility in water,[7],low solubility in water
same,LD50 at 336 h,[8],18 mg/kg
same,T/C (tumor weight ratio),[9]; 5 mg/kg i.p.,0.71
same,T/C (tumor weight ratio),[9]; 10 mg/kg i.p.,0.37
same,T/C (tumor weight ratio),[9]; 20 mg/kg i.p.,0.24
same,T/C (tumor weight ratio),[9]; 40 mg/kg i.p.,0.09
same,Average survival days,[10]; 5 mg/kg i.v. once,14.0 ± 0 days
same,ILS %,[10]; 5 mg/kg i.v. once,63%
same,Average survival days,[10]; 10 mg/kg i.v. once,17.8 ± 1.9 days
same,ILS %,[10]; 10 mg/kg i.v. once,107%
same,Average survival days,[10]; 15 mg/kg i.v. once,23.0 ± 1.7 days
same,ILS %,[10]; 15 mg/kg i.v. once,167%
same,Average survival days,[10]; 20 mg/kg i.v. once,15.8 ± 5.4 days
same,ILS %,[10]; 20 mg/kg i.v. once,84%
same,Average survival days,[10]; 30 mg/kg i.v. once,8.4 ± 1.0 days
same,ILS %,[10]; 30 mg/kg i.v. once,-2%
same,Average survival days,[11]; [13],20.0 ± 3.0 days
same,ILS % (increase in life span),[11]; [13],104%
same,Number of survivors,[11]; [13],0/5
same,Average survival days,[11]; [14],20.0 ± 3.0 days
same,ILS % (increase in life span),[11]; [14],104%
same,Number of survivors,[11]; [14],0/5
same,Average survival days,[11]; [15],24.6 ± 2.9 days
same,ILS % (increase in life span),[11]; [15],151%
same,Number of survivors,[11]; [15],1/5
same,Average survival days,[11]; [16],26.4 ± 6.4 days
same,ILS % (increase in life span),[11]; [16],169%
same,Number of survivors,[11]; [16],0/5
same,Average survival days,[11]; [17],21.6 ± 6.4 days
same,ILS % (increase in life span),[11]; [17],120%
same,Number of survivors,[11]; [17],1/5
same,Average survival days,[11]; [18],21.8 ± 6.7 days
same,ILS % (increase in life span),[11]; [18],122%
same,Number of survivors,[11]; [18],0/5
same,Average survival days,[11]; [19],18.4 ± 6.1 days
same,ILS % (increase in life span),[11]; [19],88%
same,Number of survivors,[11]; [19],1/5
same,Average survival days,[11]; [20],24.4 ± 17.9 days
same,ILS % (increase in life span),[11]; [20],149%
same,Number of survivors,[11]; [20],1/5
same,Average number of leucocytes,[12]; 5 mg/kg i.p.,58.2 ± 17.1 × 10^2 /mm^3
same,Average number of leucocytes,[12]; 10 mg/kg i.p.,34.2 ± 11.2 × 10^2 /mm^3
same,Average number of leucocytes,[12]; 20 mg/kg i.p.,24.0 ± 10.2 × 10^2 /mm^3
same,Average number of leucocytes,[12]; 40 mg/kg i.p.,13.6 ± 4.6 × 10^2 /mm^3
same,minimum inhibitory concentration,[3],< 0.025
same,minimum inhibitory concentration,[4],3.125
same,minimum inhibitory concentration,[5],< 0.025
same,minimum inhibitory concentration,[6],0.049
